How the values were obtained:
Format in all cases: in vivo
[1] = tested on: Ipomoea hederaceae (IPOHE); assay: Post-emergence biological efficacy, glasshouse, 500 or 1000 g/ha, evaluated after 13 days (100=total damage to plant; 0=no damage to plant); details: Ipomoea, 312 h, rate 1,000 g/ha, read-out: Percentage damage caused to weed species, post-emergence, IPOHE
Procedure, shortened: (§1)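 Weed seeds were sown in standard soil in pots and the plants treated post-emergence. Afterwards they were grown on in a controlled glasshouse at 24/16° C. day/night with 14 hours light and 65% humidity, and watered twice daily.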

[2] = tested on: Echinochloa crusgaffi (ECHCG); assay: as above; details: Echinochloa, 312 h, rate 1,000 g/ha, read-out: Percentage damage caused to weed species, post-emergence, ECHCG
Procedure, shortened: as §1

Solanum nigrum (SOLNI) [3] = assay: as above; details: Solanum nigrum, 312 h, rate 1,000 g/ha, read-out: Percentage damage caused to weed species, post-emergence, SOLNI
Procedure, shortened: as §1

[4] = tested on: Alopecurus myosuroides (ALOMY); assay: as above; details: Alopecurus myosuroides, 312 h, rate 1,000 g/ha, read-out: Percentage damage caused to weed species, post-emergence, ALOMY
Procedure, shortened: as §1

Setaria faberi (SETFA) [5] = assay: as above; details: Setaria faberi, 312 h, rate 1,000 g/ha, read-out: Percentage damage caused to weed species, post-emergence, SETFA
Procedure, shortened: as §1

[6] = tested on: Amaranthus retroflexus (AMARE); assay: as above; details: Amaranthus retroflexus, 312 h, rate 1,000 g/ha, read-out: Percentage damage caused to weed species, post-emergence, AMARE
Procedure, shortened: as §1

[7] = tested on: Ipomoea hederaceae (IPOHE); assay: Pre-emergence biological efficacy, glasshouse, 1000 g/ha, evaluated after 13 days (100=total damage to plant; 0=no damage to plant); details: Ipomoea, 312 h, rate 1,000 g/ha, read-out: Percentage damage caused to weed species, pre-emergence, IPOHE
Procedure, shortened: (§2)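 Sowing: standard soil, pots. Growth: glasshouse, 24/16° C. day/night, 14 hours light, 65% humidity. Watering: twice daily.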

[8] = tested on: Echinochloa crus-galli (ECHCG); assay: as above; details: Echinochloa crus-galli, 312 h, rate 1,000 g/ha, read-out: Percentage damage caused to weed species, pre-emergence, ECHCG
Procedure, shortened: as §2

Solanum nigrum (SOLNI) [9] = assay: as above; details: Solanum nigrum, 312 h, rate 1,000 g/ha, read-out: Percentage damage caused to weed species, pre-emergence, SOLNI
Procedure, shortened: as §2

[10] = tested on: Alopecurus myosuroides (ALOMY); assay: as above; details: Alopecurus myosuroides, 312 h, rate 1,000 g/ha, read-out: Percentage damage caused to weed species, pre-emergence, ALOMY
Procedure, shortened: as §2

Setaria faberi (SETFA) [11] = assay: as above; details: Setaria faberi, 312 h, rate 1,000 g/ha, read-out: Percentage damage caused to weed species, pre-emergence, SETFA
Procedure, shortened: as §2

[12] = tested on: Amaranthus retroflexus (AMARE); assay: as above; details: Amaranthus retroflexus, 312 h, rate 1,000 g/ha, read-out: Percentage damage caused to weed species, pre-emergence, AMARE
Procedure, shortened: as §2

| SMILES | pest or weed control at 1000 g/ha [1] | pest or weed control at 1000 g/ha [2] | pest or weed control at 1000 g/ha (Solanum nigrum (SOLNI) [3]) | pest or weed control at 1000 g/ha [4] | pest or weed control at 1000 g/ha (Setaria faberi (SETFA) [5]) | pest or weed control at 1000 g/ha [6] | pest or weed control at 1000 g/ha [7] | pest or weed control at 1000 g/ha [8] | pest or weed control at 1000 g/ha (Solanum nigrum (SOLNI) [9]) | pest or weed control at 1000 g/ha [10] | pest or weed control at 1000 g/ha (Setaria faberi (SETFA) [11]) | pest or weed control at 1000 g/ha [12] |
| --- | --- | --- | --- | --- | --- | --- | --- | --- | --- | --- | --- | --- |
| COC(=O)c1nc(-c2ccc(Cl)c(OC)c2F)nc2scc(C)c12 [Compound 21-64, 2-(4-Chloro-2-fluoro-3-methoxyphenyl)-4-methoxycarbonyl-5-methyl-thieno[2,3-d]pyrimidine] | 40% | 10% | 70% | 0% | 0% | 80% | 0% | 0% | 0% | 0% | 0% | 0% |
| COC(=O)c1nc(-c2ccc(Cl)c(OC)c2F)nc2c1c(C)cn2Cc1ccccc1 [Compound 6-64, 2-(4-Chloro-2-fluoro-3-methoxyphenyl)-4-methoxycarbonyl-5-methyl-7-phenylmethyl-7H-pyrrolo[2,3-d]pyrimidine] | 50% | 0% | 70% | 0% | 0% | 20% | 30% | 0% | 50% | 0% | 0% | 50% |
| COc1c(Cl)ccc(-c2nc(C(=O)O)c3c(C)cn(Cc4ccc(F)cc4)c3n2)c1F [Compound 9-63] | 40% | 0% | 60% | 0% | 0% | 20% | 0% | 0% | 10% | 0% | 0% | 20% |
| CCCCCC(C)OC(=O)c1nc(-c2ccc(Cl)c(OC)c2F)cc2[nH]cc(C)c12 (stereo not drawn) [Compound 22-79, 6-(4-Chloro-2-fluoro-3-methoxyphenyl)-4-(hept-2-yloxycarbonyl)-3-methyl-1H-pyrrolo[3,2-c]pyridine] | 40% | 0% | 70% | 10% | 10% | 40% | 30% | 10% | 50% | 10% | 20% | 10% |
| COC(=O)c1nc(-c2ccc(Cl)c(F)c2)nc2[nH]c(C)c(C)c12 [Compound 1-24, 2-(4-chloro-3-fluorophenyl)-5,6-dimethyl-4-methoxycarbonyl-7H-pyrrolo[2,3-d]pyrimidine] | 20% | 0% | 50% | 0% | 0% | 10% | 0% | 0% | 0% | 0% | 0% | 0% |
| COC(=O)c1nc(C2CC2)nc2c1ccn2Cc1ccccc1[N+](=O)[O-] [Compound 8-2, 2-Cyclopropyl-4-methoxycarbonyl-7-(2-nitrophenyl-methyl)-7H-pyrrolo[2,3-d]pyrimidine] | 20% | 0% | 20% | 0% | 0% | 0% | 0% | 0% | 0% | 0% | 0% | 0% |
